Legend:
Type in all cases: cell-based, mouse
[1] = tested on: α7 integrin (LacZ reporter in α7βgal+/− myoblasts); test: Myoblast α7+/LacZ integrin FDG assay (Burkin assay in myoblasts, 96-well); conditions: α7+/LacZ myoblasts, 96-well
[2] = tested on: α7 integrin (LacZ reporter in α7+/LacZ myotubes); test: Myotube α7 integrin FDG assay (Burkin assay in myotubes, 96-well); conditions: myotubes
[3] = tested on: β-galactosidase in CMV-LacZ C2C12 myotubes; test: CMV-LacZ secondary screen in C2C12 myotubes (β-Gal stabilizing assay); conditions: C2C12 CMV-LacZ myotubes, fold relative to DMSO
Summary of the method: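 Stable CMV-LacZ C2C12 clone; six-point curve 0.5–40 μM; duplicates.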

[4] = tested on: β-galactosidase in CMV-LacZ C2C12 myoblasts; test: CMV-LacZ secondary screen in C2C12 myoblasts (β-Gal stabilizing assay); conditions: CMV-LacZ C2C12 myoblasts
Summary of the method: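 CMV-LacZ C2C12 line (clonal, FDG-screened); myoblasts/myotubes dosed 0.5–40 μM (0.5, 1, 5, 10, 20, 40 μM); n=2 per point; β-gal stabilization read-out.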

Compound | Burkin Assay in Myoblasts, signal relative to DMSO ([1]; 0.5 uM) | Burkin Assay in Myoblasts, signal relative to DMSO ([1]; 1 uM) | Burkin Assay in Myoblasts, signal relative to DMSO ([1]; 5 uM) | Burkin Assay in Myoblasts, signal relative to DMSO ([1]; 10 uM) | Burkin Assay in Myoblasts, signal relative to DMSO ([1]; 20 uM) | Burkin Assay in Myoblasts, signal relative to DMSO ([1]; 40 uM) | Burkin Assay in Myotubes, α7 integrin LacZ reporter signal relative to DMSO ([2]; 0.5 uM) | Burkin Assay in Myotubes, α7 integrin LacZ reporter signal relative to DMSO ([2]; 1 uM) | Burkin Assay in Myotubes, α7 integrin LacZ reporter signal relative to DMSO ([2]; 5 uM) | Burkin Assay in Myotubes, α7 integrin LacZ reporter signal relative to DMSO ([2]; 10 uM) | Burkin Assay in Myotubes, α7 integrin LacZ reporter signal relative to DMSO ([2]; 20 uM) | Burkin Assay in Myotubes, α7 integrin LacZ reporter signal relative to DMSO ([2]; 40 uM) | CMV-LACZ in Myotubes, signal relative to DMSO ([3]; 0.5 uM) | CMV-LACZ in Myotubes, signal relative to DMSO ([3]; 1 uM) | CMV-LACZ in Myotubes, signal relative to DMSO ([3]; 5 uM) | CMV-LACZ in Myotubes, signal relative to DMSO ([3]; 10 uM) | CMV-LACZ in Myotubes, signal relative to DMSO ([3]; 20 uM) | CMV-LACZ in Myotubes, signal relative to DMSO ([3]; 40 uM) | CMV-LACZ in Myoblasts (β-galactosidase activity relative to DMSO) ([4]; 0.5 uM) | CMV-LACZ in Myoblasts (β-galactosidase activity relative to DMSO) ([4]; 1 uM) | other results
CCc1ccc(S(=O)(=O)NCCOc2cccc3cccnc23)cc1 [MLS001034810-01] | 1.021 | 0.9975 | 1.375 | 1.191 | 0.8996 | 0.8407 | 1.035 | 1.07 | 1.403 | 1.165 | 1 | 0.7593 | 1.1000 | 1.7389 | 0.9578 | 1.0965 | 1.0578 | 1.1344 | 0.9698 | 0.9538 | CMV-LACZ in Myoblasts (β-galactosidase activity relative to DMSO) ([4]; 5 uM): 1.0948; CMV-LACZ in Myoblasts (β-galactosidase activity relative to DMSO) ([4]; 10 uM): 0.9459; CMV-LACZ in Myoblasts (β-galactosidase activity relative to DMSO) ([4]; 20 uM): 1.1193; CMV-LACZ in Myoblasts (β-galactosidase activity relative to DMSO) ([4]; 40 uM): 0.7030
CC(NC(=O)c1ccc(C(C)(C)C)cc1)C(c1cccs1)N1CCOCC1 (stereo not drawn) [MLS001167281-01] | 1.089 | 1.18 | 1.075 | 0.9776 | 0.8869 | 0.8618 | 1.063 | 1.054 | 1.074 | 1.142 | 0.8293 | 0.8345 | 1.0663 | 1.0789 | 0.8948 | 0.9727 | 1.1089 | 0.9722 | 1.0114 | 1.1289 | CMV-LACZ in Myoblasts (β-galactosidase activity relative to DMSO) ([4]; 5 uM): 0.9684; CMV-LACZ in Myoblasts (β-galactosidase activity relative to DMSO) ([4]; 10 uM): 1.1951; CMV-LACZ in Myoblasts (β-galactosidase activity relative to DMSO) ([4]; 20 uM): 0.9256; CMV-LACZ in Myoblasts (β-galactosidase activity relative to DMSO) ([4]; 40 uM): 0.7467
N#Cc1nc(COc2ccccc2)oc1N1CCCC1 [MLS000036988-01] | 1.189 | 1.0825 | 0.8657 | 0.8256 | 0.9023 | 0.6581 | 0.8553 | 0.7577 | 0.8099 | 0.8223 | 0.4172 | 0.104 | 0.9867 | 0.8905 | 0.8979 | 1.0868 | 0.7116 | 0.5021 | 1.0767 | 1.0846 | CMV-LACZ in Myoblasts (β-galactosidase activity relative to DMSO) ([4]; 5 uM): 0.9702; CMV-LACZ in Myoblasts (β-galactosidase activity relative to DMSO) ([4]; 10 uM): 1.0435; CMV-LACZ in Myoblasts (β-galactosidase activity relative to DMSO) ([4]; 20 uM): 0.8796; CMV-LACZ in Myoblasts (β-galactosidase activity relative to DMSO) ([4]; 40 uM): 0.6578
COc1cccc(CN2CCN(Cc3ccco3)CC2)c1.O=C(O)C(=O)O [MLS001211139-01] | 1.2392 | 1.136 | 1.065 | 0.9683 | 1.218 | 1.216 | 1.167 | 1.288 | 1.003 | 0.9425 | 0.8283 | 0.7547 | 0.9281 | 0.8948 | 1.1755 | 1.0196 | 0.8259 | 1.0224 | 0.9691 | 0.7347 | CMV-LACZ in Myoblasts (β-galactosidase activity relative to DMSO) ([4]; 5 uM): 0.9500; CMV-LACZ in Myoblasts (β-galactosidase activity relative to DMSO) ([4]; 10 uM): 0.8608; CMV-LACZ in Myoblasts (β-galactosidase activity relative to DMSO) ([4]; 20 uM): 1.0659; CMV-LACZ in Myoblasts (β-galactosidase activity relative to DMSO) ([4]; 40 uM): 0.8744
CCN(CC)C(=O)c1sc2nc(-c3ccc(OC)cc3)cn2c1C [MLS000089464-01] | 0.9965 | 0.9802 | 0.934 | 0.7825 | 0.5631 | 0.3911 | 1.063 | 1.029 | 1.128 | 0.9917 | 0.9545 | 0.8373 | 0.9716 | 1.3716 | 0.9400 | 0.9529 | 1.3067 | 1.0178 | 0.9117 | 0.9160 | CMV-LACZ in Myoblasts (β-galactosidase activity relative to DMSO) ([4]; 5 uM): 0.9372; CMV-LACZ in Myoblasts (β-galactosidase activity relative to DMSO) ([4]; 10 uM): 1.1969; CMV-LACZ in Myoblasts (β-galactosidase activity relative to DMSO) ([4]; 20 uM): 0.7500; CMV-LACZ in Myoblasts (β-galactosidase activity relative to DMSO) ([4]; 40 uM): 0.5274

From patent US9980943B2, “Methods of treating muscular dystrophy” (BOARD OF REGENTS OF THE NEVADA SYSTEM OF HIGHER EDUCATION, …, priority 2013, dated 2018)
